Measurements as given in the CheMixHub viscosity set.
± gives the uncertainty stated by the source.

Experiment: xn = mol fraction of the nth substance listed

C1CCCCC1 + CO
viscosity [mPa·s], 101.32 kPa
Conditions | 321.15 K | 322.15 K | 323.15 K
x2 = 0.121 | 0.5549 ± 0.011 | 0.5469 ± 0.011 | 0.539 ± 0.011
x2 = 0.226 | 0.5465 ± 0.011 | 0.5386 ± 0.011 | 0.5465 ± 0.011
x2 = 0.396 | 0.5423 ± 0.011 | 0.5334 ± 0.011 | 0.5239 ± 0.01
x2 = 0.467 | 0.5629 ± 0.011 | 0.5508 ± 0.011 | 0.5356 ± 0.011
x2 = 0.5 | 0.5933 ± 0.011 | 0.5559 ± 0.011 | 0.5379 ± 0.011
x2 = 0.527 | 0.5771 ± 0.011 | 0.5464 ± 0.011 | 0.53 ± 0.011
x2 = 0.637 | 0.5116 ± 0.01 | 0.5017 ± 0.01 | 0.4925 ± 0.01
x2 = 0.724 | 0.4688 ± 0.01 | 0.4624 ± 0.01 | 0.4564 ± 0.01
x2 = 0.762 | 0.4569 ± 0.01 | 0.4514 ± 0.01 | 0.4459 ± 0.01
x2 = 0.798 | 0.4443 ± 0.01 | 0.4363 ± 0.01 | 0.4338 ± 0.01
x2 = 0.83 | 0.4338 ± 0.01 | 0.4284 ± 0.01 | 0.4233 ± 0.01
x2 = 0.86 | 0.4249 ± 0.01 | 0.4198 ± 0.01 | 0.4148 ± 0.01
x2 = 0.913 | 0.4122 ± 0.01 | 0.4074 ± 0.01 | 0.4024 ± 0.01
x2 = 0.959 | 0.4053 ± 0.01 | 0.4003 ± 0.01 | 0.3956 ± 0.01

COC(C)=O + COCCO
viscosity [mPa·s], 101 kPa
Conditions | x2 = 0.0993 | x2 = 0.2004 | x2 = 0.2993 | x2 = 0.4009 | x2 = 0.4996 | x2 = 0.6014 | x2 = 0.7013 | x2 = 0.8006 | x2 = 0.9001
298.15 K | 0.429 ± 0.036 | 0.484 ± 0.041 | 0.549 ± 0.046 | 0.636 ± 0.053 | 0.729 ± 0.061 | 0.862 ± 0.072 | 1.012 ± 0.084 | 1.218 ± 0.1 | 1.453 ± 0.12
303.15 K | 0.407 ± 0.034 | 0.457 ± 0.039 | 0.517 ± 0.043 | 0.596 ± 0.05 | 0.679 ± 0.057 | 0.797 ± 0.067 | 0.929 ± 0.077 | 1.112 ± 0.093 | 1.317 ± 0.11
308.15 K | 0.387 ± 0.033 | 0.432 ± 0.036 | 0.486 ± 0.041 | 0.556 ± 0.047 | 0.632 ± 0.053 | 0.738 ± 0.062 | 0.858 ± 0.072 | 1.025 ± 0.085 | 1.2 ± 0.1

COc1ccccc1N + COCCO
303.15 K, 101 kPa
Conditions | viscosity [mPa·s]
x1 = 0.0724 | 2.225 ± 0.041
x1 = 0.1494 | 2.507 ± 0.046
x1 = 0.2314 | 2.808 ± 0.051
x1 = 0.319 | 3.132 ± 0.057
x1 = 0.4127 | 3.478 ± 0.063
x1 = 0.5131 | 3.794 ± 0.069
x1 = 0.6211 | 4.083 ± 0.074
x1 = 0.7376 | 4.343 ± 0.079
x1 = 0.8635 | 4.614 ± 0.084

c1ccc2ncccc2c1 + COc1ccccc1O
303.15 K, 101 kPa
Conditions | viscosity [mPa·s]
x1 = 0.1 | 5.95 ± 0.16
x1 = 0.2 | 8.05 ± 0.22
x1 = 0.3 | 10.04 ± 0.27
x1 = 0.333 | 10.54 ± 0.29
x1 = 0.36 | 10.97 ± 0.3
x1 = 0.38 | 11.45 ± 0.31
x1 = 0.4 | 11.65 ± 0.32
x1 = 0.44 | 11.66 ± 0.32
x1 = 0.46 | 11.57 ± 0.32
x1 = 0.5 | 10.95 ± 0.3
x1 = 0.6 | 8.98 ± 0.24
x1 = 0.7 | 6.77 ± 0.18
x1 = 0.8 | 4.87 ± 0.13
x1 = 0.9 | 3.88 ± 0.1
